Measurements as given in ChEMBL document CHEMBL6121046, “Discovery of Novel Hydrazide-Based HDAC3 Inhibitors as Epigenetic Immunomodulators for Cancer Immunotherapy” (J Med Chem, 2025).
The source made the active and inactive calls. No cut-off for these calls is given here.

Tests used:
Histone deacetylase 3 = Histone deacetylase 3 (Homo sapiens, UniProt O15379); experiment: Inhibition of human recombinant HDAC3 pre-incubated with compounds for 10 mins measured followed by 60 mins of substrate addition
MC-38 [1] = experiment: Antiproliferative activity against mouse MC38 cells measured after 48 hrs incubation by MTT assay relative to control; type: functional, cell-based; conditions: MC-38, 48 h
MC-38 [2] = experiment: Induction of apoptosis in mouse MC38 cells assessed as early apoptotic cells at 4 uM measured after 48 hrs by FITC/PI staining based flow cytometry (Rvb =12.27%); type: functional
MC-38 [3] = experiment: Effect on acetylated SMC3 in mouse MC38 cells at 0.1 to 2 uM measured after 24 hrs incubation by Western blot analysis; type: functional, cell-based; conditions: dose 0.1-2 µM
HepG2 = experiment: Antiproliferative activity against human HepG2 cells measured after 48 hrs incubation by MTT assay relative to control; type: functional, cell-based; conditions: HepG2, 48 h
[4] = Antiproliferative activity against […] cells measured after 48 hrs incubation by MTT assay relative to control; type: functional, cell-based; conditions: Mus musculus, Lung cancer cell line
MC-38 [5] = experiment: Induction of apoptosis in mouse MC38 cells assessed as viable cells at 8 uM measured after 48 hrs by FITC/PI staining based flow cytometry (reference value: 82.07%); type: functional; conditions: read-out: Activity
MC-38 [6] = experiment: Induction of apoptosis in mouse MC38 cells assessed as necrotic cells at 4 uM measured after 48 hrs by FITC/PI staining based flow cytometry (reference value: 0.56%); type: functional
Histone deacetylase 1 = Histone deacetylase 1 (Homo sapiens, UniProt Q13547); experiment: Inhibition of human recombinant HDAC1 pre-incubated with compounds for 10 mins measured followed by 60 mins of substrate addition
MC-38 [7] = experiment: Induction of apoptosis in mouse MC38 cells assessed as late apoptotic cells at 1 uM measured after 48 hrs by FITC/PI staining based flow cytometry (reference value: 5.07%); type: functional
MCF7 = experiment: Antiproliferative activity against human MCF7 cells measured after 48 hrs incubation by MTT assay relative to control; type: functional, cell-based; conditions: MCF7, 48 h
MC-38 [8] = experiment: Cell cycle arrest in mouse MC38 cells assessed as decrease in accumulation of cells at G0/G1 phase measured after 48 hrs by flow cytometry; type: functional, cell-based; conditions: dose 1-8 µM
MC-38 [9] = experiment: Induction of apoptosis in mouse MC38 cells assessed as viable cells at 2 uM measured after 48 hrs by FITC/PI staining based flow cytometry (reference value: 82.07%); type: functional; conditions: read-out: Activity
MC-38 [10] = experiment: Cell cycle arrest in mouse MC38 cells assessed as increase in accumulation of cells at G2/M phase measured after 48 hrs by flow cytometry; type: functional, cell-based; conditions: dose 1-8 µM
Histone deacetylase 8 = target: T1, Histone deacetylase 8 (Homo sapiens, UniProt Q9BY41); experiment: Inhibition of human recombinant HDAC8 pre-incubated with compounds for 10 mins measured followed by 60 mins of substrate addition
T1 sequence (Q9BY41 whole entry): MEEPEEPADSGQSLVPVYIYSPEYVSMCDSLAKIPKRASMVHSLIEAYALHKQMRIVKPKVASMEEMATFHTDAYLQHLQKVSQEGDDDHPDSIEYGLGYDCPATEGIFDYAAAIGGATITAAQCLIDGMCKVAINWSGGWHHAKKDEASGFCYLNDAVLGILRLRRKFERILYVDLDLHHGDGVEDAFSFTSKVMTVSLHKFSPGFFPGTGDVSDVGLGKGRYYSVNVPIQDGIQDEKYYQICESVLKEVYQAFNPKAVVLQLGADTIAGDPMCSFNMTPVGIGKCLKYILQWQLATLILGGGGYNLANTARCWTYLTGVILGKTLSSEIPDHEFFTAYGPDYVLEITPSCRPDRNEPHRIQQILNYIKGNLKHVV

MC-38 [11] = experiment: Induction of apoptosis in mouse MC38 cells assessed as late apoptotic cells at 2 uM measured after 48 hrs by FITC/PI staining based flow cytometry (reference value: 5.07%); type: functional
MC-38 [12] = experiment: Induction of apoptosis in mouse MC38 cells assessed as necrotic cells at 8 uM measured after 48 hrs by FITC/PI staining based flow cytometry (reference value: 0.56%); type: functional
MC-38 [13] = experiment: Induction of apoptosis in mouse MC38 cells assessed as viable cells at 4 uM measured after 48 hrs by FITC/PI staining based flow cytometry (reference value: 82.07%); type: functional; conditions: read-out: Activity
MC-38 [14] = experiment: Effect on acetylated alpha-tubulin in mouse MC38 cells at 0.1 to 2 uM measured after 24 hrs incubation by Western blot analysis; type: functional, cell-based; conditions: dose 0.1-2 µM
MC-38 [15] = experiment: Induction of apoptosis in mouse MC38 cells assessed as early apoptotic cells at 2 uM measured after 48 hrs by FITC/PI staining based flow cytometry (Rvb =12.27%); type: functional

Chain of Histone deacetylase 1 (Q13547 whole entry): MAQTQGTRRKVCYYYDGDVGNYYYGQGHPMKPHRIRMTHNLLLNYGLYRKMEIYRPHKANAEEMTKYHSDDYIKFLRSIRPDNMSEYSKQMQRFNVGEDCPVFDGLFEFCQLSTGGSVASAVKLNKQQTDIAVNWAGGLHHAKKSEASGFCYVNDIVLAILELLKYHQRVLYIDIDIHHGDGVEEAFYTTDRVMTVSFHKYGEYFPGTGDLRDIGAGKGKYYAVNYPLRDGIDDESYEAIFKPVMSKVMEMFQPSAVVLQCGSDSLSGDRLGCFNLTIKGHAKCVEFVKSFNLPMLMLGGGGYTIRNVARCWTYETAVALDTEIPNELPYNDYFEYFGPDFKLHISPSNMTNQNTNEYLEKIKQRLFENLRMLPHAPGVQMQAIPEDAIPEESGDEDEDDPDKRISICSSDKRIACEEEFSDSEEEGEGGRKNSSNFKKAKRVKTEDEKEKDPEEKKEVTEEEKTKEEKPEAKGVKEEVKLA
Chain of Histone deacetylase 3 (O15379 whole entry): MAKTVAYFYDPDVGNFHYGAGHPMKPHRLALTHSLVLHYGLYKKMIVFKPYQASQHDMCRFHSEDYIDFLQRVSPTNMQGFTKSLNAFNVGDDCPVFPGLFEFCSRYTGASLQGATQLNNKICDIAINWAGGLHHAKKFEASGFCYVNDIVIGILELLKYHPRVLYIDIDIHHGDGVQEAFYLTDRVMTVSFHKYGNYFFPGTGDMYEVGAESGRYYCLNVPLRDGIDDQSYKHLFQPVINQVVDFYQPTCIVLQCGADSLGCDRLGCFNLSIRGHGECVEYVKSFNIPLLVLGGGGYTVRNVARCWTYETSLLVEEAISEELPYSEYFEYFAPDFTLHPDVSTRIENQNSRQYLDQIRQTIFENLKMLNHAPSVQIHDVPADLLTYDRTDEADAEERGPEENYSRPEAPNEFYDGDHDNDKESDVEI

SMILES	IC50 (Histone deacetylase 3) [nM]	IC50 (MC-38 [1]) [nM]	Activity (MC-38 [2]) [%]	Activity (MC-38 [3])	IC50 (HepG2) [nM]	IC50 [4] [nM]	viability at 8 µM (MC-38 [5]) [%]	Activity (MC-38 [6]) [%]	IC50 (Histone deacetylase 1) [nM]	Activity (MC-38 [7]) [%]	IC50 (MCF7) [nM]	Activity (MC-38 [8])	viability at 2 µM (MC-38 [9]) [%]	Activity (MC-38 [10])	IC50 (Histone deacetylase 8) [nM]	Activity (MC-38 [11]) [%]	Activity (MC-38 [12]) [%]	viability at 4 µM (MC-38 [13]) [%]	Activity (MC-38 [14])	Activity (MC-38 [15]) [%]
CCCNNC(=O)c1ccc(CNC(=O)c2cnc(-c3ccc4occc4c3)[nH]2)cc1	53	1800	24.75	inactive	330	1030	16.4	2.1	3980	35	1900	Dose-dependent-effect	37.9	Active	> 10000	28.73	2.85	18.2	inactive	31.2
CCCNNC(=O)c1ccc(CNC(=O)c2cnc(-c3cccc4ccccc34)[nH]2)cc1	61	2300	43.9	inactive	370	930	22.2	0.92	2030	30.57	2160	Dose-dependent-effect	31.3	Active	> 10000	41.1	8.29	28.3	inactive	18.6
